Where a name gives a salt, the structure may show the parent alone.

One data set concerns the target T1, hα7-wt nAChR (Homo sapiens, UniProt P36544).
T1 construct: expressed in transfected cells
The experiment in a line: Ca2+ flux imaging (FDSS) (Protocol B), PAM activity with choline as agonist. The data set is classed as cell-based. The note with it: for EC50: "<5" = no top plateau at maximal concentration; for Emax: read-out: % efficacy. The protocol:
• Hanks buffered saline solution (HBSS, Invitrogen, Belgium), supplemented with 10 mM HEPES (Invitrogen, Belgium), CaCl2 to a final concentration of 5 mM, 0.1% Bovine serum albumin (Sigma-Aldrich NV, Belgium). b) Calcium-Sensitive Dye—Fluo-4AM • Fluo-4AM (Molecular Probes, USA) was dissolved in DMSO containing 10% Pluronic acid (Molecular Probes, USA) to give a stock solution which was diluted in assay buffer supplemented with 5 mM probenicid (Sigma, Aldrich NV, Belgium) to give a final concentration of 2 μM. c) 384-Well Plates • Black 384 well plate black/clear plates, PDL pre-coated (Corning, Incorporated, USA) d) Calcium Flux Measurement
A Functional drug screening system (FDSS, Hamamatsu) was used to measure intracellular free-calcium flux signals.
Monolayers of hα7-wt nAChR-expressing cells were grown in multi-well plates, in particular black-sided, transparent bottomed 384 well plates coated with poly-D-lysine for 24 hours prior to loading with a fluorescent calcium indicator, in a particular embodiment loading with fluo-4AM for up to 120 minutes.
PAM activity was detected in real time by applying the compounds to be tested to the loaded cells along with a α7 nicotinic receptor agonist during constant monitoring of cellular fluorescence in a FDSS. Compounds giving peak fluorescent responses greater than the response due to agonist alone, were considered to be α7 nAChR PAM's. In a particular embodiment, the α7 nicotinic receptor agonist was choline, a more particular embodiment choline applied at a sub-maximal concentration of 100 μM. In a further setting of the present invention the compounds to be tested were applied prior to the α7 nicotinic receptor agonist, in a particular embodiment up to 10 minutes prior to the agonist.
A control response to choline was calculated on each plate from the difference in peak in fluorescence in wells receiving either choline or assay buffer alone. Compounds of the present invention were tested at a concentration range from 0.01 μM to 30 μM. Compounds were considered to have an interesting activity when they potentiated the choline signal at least with 500% when tested at a concentration of 30 μM (the efficacy of 100 μM choline was defined as 100% in the absence of a PAM). The compounds also have a potentiating effect on the response to choline when measured by whole-cell patch clamp electrophysiology in GH4C1 cells stably over-expressing the human wild-type α7 receptor.

T1 sequence (P36544 23-502): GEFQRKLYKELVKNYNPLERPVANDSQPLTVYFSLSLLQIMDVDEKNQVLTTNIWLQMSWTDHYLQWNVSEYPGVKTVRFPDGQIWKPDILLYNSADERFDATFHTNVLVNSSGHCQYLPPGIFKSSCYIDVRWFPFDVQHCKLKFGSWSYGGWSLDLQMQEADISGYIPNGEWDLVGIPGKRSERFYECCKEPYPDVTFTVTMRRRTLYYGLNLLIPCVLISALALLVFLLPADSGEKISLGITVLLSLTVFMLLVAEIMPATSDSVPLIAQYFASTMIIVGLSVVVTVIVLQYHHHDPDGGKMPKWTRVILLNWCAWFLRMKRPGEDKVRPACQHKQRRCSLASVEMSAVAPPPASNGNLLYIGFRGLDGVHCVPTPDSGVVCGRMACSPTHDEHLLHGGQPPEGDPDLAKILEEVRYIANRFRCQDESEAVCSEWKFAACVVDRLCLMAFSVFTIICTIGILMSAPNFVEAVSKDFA

As for `C[C@@H](O)Cn1nc(Nc2ccc(F)c(C(F)(F)F)c2)nc1-c1ccc(C2CC2)nc1` (as salt: HCl) (hydrate or solvate) [Compound 100], the melting point stood at 204.6 °C.

`CC(O)Cn1nc(Nc2cccc(OC(F)(F)F)c2)nc1-c1ccnc(C2CC2)c1` (centres unmarked) (as salt: HCl) [Compound 151] came in with a melting point of 207.5 °C.

In turn, `CNC(=O)Cn1nc(Nc2cccc(C(F)(F)F)c2)nc1-c1ccc2c(c1)OCCO2` [Compound 1] returned a melting point of 206.2 to 207.1 °C. Besides, the EC50 on hα7-wt nAChR was 251 nM.

As for `OCCn1nc(Nc2cccc(C(F)(F)F)c2)nc1-c1ccncc1` [Compound 2], the melting point lay in the range of 179.1 to 180 °C. On hα7-wt nAChR, the EC50 was 7940 nM.

On to `CN(C)C(=O)CCn1nc(Nc2cccc(C(F)(F)F)c2)nc1-c1ccncc1` [Compound 4], for which the melting point is 164.2 to 174.2 °C. Further, the EC50 at hα7-wt nAChR is 501 nM.

For the compound `CC(C)NC(=O)Cn1nc(Nc2cccc(C(F)(F)F)c2)nc1-c1ccc2c(c1)OCCO2` [Compound 5], the melting point fell in the range of 213.9 to 215 °C. The 50% effective concentration (EC50) on hα7-wt nAChR was 200 nM.

Take `Cc1cc(C(=O)NCCCn2nc(Nc3cccc(C(F)(F)F)c3)nc2-c2ccncc2)no1` [Compound 8]: the melting point lay within 152.9 to 154.9 °C. On hα7-wt nAChR, the concentration giving a half-maximal response (EC50) was 2510 nM.

Compound `CNC(=O)Cn1nc(Nc2cccc(C(F)(F)F)c2)nc1-c1ccncc1` [Compound 9] gave a melting point of 212.9 to 214 °C. The EC50 on hα7-wt nAChR was more than 10000 nM.

As to `NC(=O)CCn1nc(Nc2cccc(C(F)(F)F)c2)nc1-c1ccc2c(c1)OCCO2` [Compound 10], the melting point fell in the range of 175.2 to 176.5 °C. The EC50 at hα7-wt nAChR was 2000 nM.

Regarding `CNC(=O)CCn1nc(Nc2cccc(C(F)(F)F)c2)nc1-c1ccc2c(c1)OCCO2` [Compound 12], at hα7-wt nAChR, the concentration for a half-maximal effect (EC50) is 794 nM.

Turning to `OCCn1nc(Nc2cc(Cl)ccc2Cl)nc1-c1ccncc1` [Compound 14], the melting point fell in the range of 163.4 to 165.2 °C. Moreover, the EC50 at hα7-wt nAChR was 5010 nM.

As for `COc1cc(OC)c(Nc2nc(-c3ccncc3)n(CCO)n2)cc1Cl` [Compound 15], the melting point was in the range of 207.2 to 207.9 °C.

`OCCn1nc(Nc2cc(Cl)ccc2Cl)nc1-c1ccccc1` [Compound 17] yielded a melting point of 140.5 to 142 °C.

As for `NC(=O)Cn1nc(Nc2cccc(C(F)(F)F)c2)nc1-c1ccncc1` [Compound 19], the melting point was in the range of 271 to 272.1 °C. For the same compound, the concentration giving a half-maximal response (EC50) on hα7-wt nAChR is more than 10000 nM.

Turning to `NC(=O)Cn1nc(Nc2cccc(C(F)(F)F)c2)nc1-c1ccc2c(c1)OCCO2` [Compound 21], the melting point was 225.5 °C. Besides, the half-maximal effective concentration (EC50) on hα7-wt nAChR was 1260 nM.

For `CC(C)NC(=O)CCn1nc(Nc2cccc(C(F)(F)F)c2)nc1-c1ccncc1` [Compound 22], the melting point fell in the range of 196.5 to 197.2 °C.

Turning to `COCCNC(=O)Cn1nc(Nc2cccc(C(F)(F)F)c2)nc1-c1ccncc1` [Compound 24], the melting point is 184.2 to 188.1 °C. Also, the half-maximal effective concentration (EC50) at hα7-wt nAChR was more than 10000 nM.

Compound `Cc1cc(-c2nc(Nc3ccc4c(c3)OC(F)(F)O4)nn2CC(=O)NCC2CC2)ccn1` [Compound 26] came in with a melting point of 227.2 °C. In addition, the EC50 on hα7-wt nAChR was 794 nM.

As for `CNC(=O)Cn1nc(Nc2ccc(F)c(C(F)(F)F)c2)nc1-c1cnc2c(c1)OCC2` [Compound 28], the melting point came out at 246.8 °C. In addition, the EC50 at hα7-wt nAChR was 794 nM.

The compound `CC(C)(C)OC(=O)CCn1nc(Nc2ccc(F)c(C(F)(F)F)c2)nc1-c1ccnc(C#N)c1` [Compound 29] returned a melting point of 156.1 °C.

Regarding `CC(C)(C)OC(=O)CCn1nc(Nc2ccc(F)c(C(F)(F)F)c2)nc1-c1ccnc(CN)c1` [Compound 30], the melting point amounted to 151.6 °C.

For the compound `O=C(O)CCn1nc(Nc2ccc(F)c(C(F)(F)F)c2)nc1-c1ccnc(Cl)c1` [Compound 31], the melting point was 180.7 °C.

As for `CN(C)C(=O)CCn1nc(Nc2ccc3c(c2)OC(F)(F)O3)nc1-c1ccncc1` [Compound 33], the melting point worked out at 216.4 °C. Besides, at hα7-wt nAChR, the EC50 is 631 nM.

In turn, `CNC(=O)Cn1nc(Nc2cc(F)c(F)c(NC)c2)nc1-c1ccnc(NC)c1` [Compound 35] came in with a melting point of 221.6 °C. In addition, the EC50 on hα7-wt nAChR is more than 10000 nM.

As for `CNC(=O)Cn1nc(Nc2cc(F)c(F)c(F)c2)nc1-c1ccnc(NC)c1` [Compound 36], the melting point was found to be 277.5 °C. For the same compound, the half-maximal effective concentration (EC50) at hα7-wt nAChR was 2510 nM.

Regarding `CNc1cc(-c2nc(Nc3ccc(F)c(C(F)(F)F)c3)nn2CCc2noc(C)n2)ccn1` [Compound 37], the melting point is 188.7 °C. For the same compound, the EC50 at hα7-wt nAChR is 1260 nM.

Compound `CCNc1cc(-c2nc(Nc3cc(F)c(F)c(F)c3)nn2C[C@H](C)O)ccn1` [Compound 39] displayed a melting point of 165.1 °C. The 50% effective concentration (EC50) at hα7-wt nAChR was 1000 nM.

In turn, `CNC(=O)c1ccc(-c2nc(Nc3ccc(F)c(F)c3)nn2C[C@H](C)O)cn1` [Compound 41] yielded a melting point of 186.1 °C. For the same compound, at hα7-wt nAChR, the EC50 was more than 10000 nM and the Emax turned out to be 635%.

Compound `N/C(CCn1nc(Nc2ccc(F)c(C(F)(F)F)c2)nc1-c1ccnc(Cl)c1)=N\O` [Compound 55] gave a melting point of 166.8 °C.

Turning to `CN(C)C(=O)CCn1nc(Nc2ccc(F)c(C(F)(F)F)c2)nc1-c1cnc2c(c1)CCN2` [Compound 58], on hα7-wt nAChR, the EC50 was 158 nM.

Regarding `CN(C)C(=O)CCn1nc(Nc2ccc(F)c(C(F)(F)F)c2)nc1-c1ccnc(CN)c1` [Compound 60], at hα7-wt nAChR, the EC50 was 3980 nM and the Emax was 772%.

The compound `N#CCCn1nc(Nc2cccc(C(F)(F)F)c2)nc1-c1ccncc1` [Compound 64] showed a melting point of 155.9 to 157.1 °C.

With `Cc1noc(CCn2nc(Nc3ccc(F)c(C(F)(F)F)c3)nc2-c2ccncc2)n1` [Compound 69], the EC50 at hα7-wt nAChR was 2000 nM.

In the case of `O=C(CCn1nc(Nc2cccc(C(F)(F)F)c2)nc1-c1ccncc1)N1CCOCC1` [Compound 86], on hα7-wt nAChR, the concentration for a half-maximal effect (EC50) was 1260 nM.

On to `COCCNc1ccc(-c2nc(Nc3ccc(F)c(C(F)(F)F)c3)nn2CCO)cn1` [Compound 93], for which, on hα7-wt nAChR, the concentration giving a half-maximal response (EC50) is 3160 nM and the Emax turned out to be 764%.

As to `OCCn1nc(Nc2ccc(F)c(C(F)(F)F)c2)nc1-c1ccc(NC2CC2)nc1` [Compound 95], on hα7-wt nAChR, the concentration giving a half-maximal response (EC50) was 2000 nM and the Emax was determined as 899%.

For the compound `CCNc1cc(-c2nc(Nc3ccc(F)c(C(F)(F)F)c3)nn2C[C@H](C)O)ccn1` [Compound 99], on hα7-wt nAChR, the EC50 was 1000 nM.

Regarding `C[C@H](O)Cn1nc(Nc2ccc(F)c(C(F)(F)F)c2)nc1-c1ccc(C2CC2)nc1` [Compound 101], the EC50 at hα7-wt nAChR is 631 nM.

As for `C[C@H](O)Cn1nc(Nc2ccc(F)c(C(F)(F)F)c2)nc1-c1ccnc(C2CC2)c1` [Compound 102], the EC50 on hα7-wt nAChR is 2000 nM.

As to `C[C@H](O)Cn1nc(Nc2ccc(F)c(C(F)(F)F)c2)nc1-c1cnc2ccoc2c1` [Compound 106], the concentration for a half-maximal effect (EC50) at hα7-wt nAChR was 2510 nM.

With `CC(C)(C)NC(=O)CCn1nc(Nc2ccc(F)c(C(F)(F)F)c2)nc1-c1ccncc1` [Compound 137], the 50% effective concentration (EC50) on hα7-wt nAChR is 1580 nM.

On to `CCNC(=O)Cn1nc(Nc2cc(Br)cc(C(F)(F)F)c2)nc1-c1ccc(OC)c(OCc2ccccc2)c1` [Compound 142], for which the EC50 at hα7-wt nAChR was 100 nM.

With `COc1cc(Nc2nc(-c3ccnc(NCCO)c3)n(CC(=O)NCCO)n2)cc(C(F)(F)F)c1` [Compound 147], at hα7-wt nAChR, the concentration for a half-maximal effect (EC50) is more than 10000 nM and the Emax came to 864%.

As for `CCNc1cnccc1-c1nc(Nc2cccc(OC(F)(F)F)c2)nn1CC(C)O` (centres unmarked) [Compound 149], at hα7-wt nAChR, the EC50 is 1000 nM and the Emax was 704%.

In the case of `CC(O)Cn1nc(Nc2cccc(OC(F)(F)F)c2)nc1-c1ccnc(C2CC2)c1` (centres unmarked) [Compound 151], the EC50 on hα7-wt nAChR is 2000 nM.

Consider `CN(C)CCNC(=O)Cn1nc(Nc2cccc(OC(F)(F)F)c2)nc1-c1ccc2c(c1)OCCO2` [Compound 161], for which, at hα7-wt nAChR, the EC50 was 1580 nM and the Emax came out at 550%.

On to `C[C@H](O)Cn1nc(Nc2cc(F)c(F)c(F)c2)nc1-c1ccnc(NC2CC2)c1` [Compound 173], for which the EC50 at hα7-wt nAChR was 501 nM.

Turning to `CN(C)C(=O)CCn1nc(Nc2cccc(Cl)c2)nc1-c1ccc2c(c1)OCCO2` [Compound 195], the concentration giving a half-maximal response (EC50) on hα7-wt nAChR is 79.4 nM.

Take `COc1ccc(Cl)cc1Nc1nc(-c2ccc3c(c2)OCCO3)n(CCC(=O)N(C)C)n1` [Compound 197]: the 50% effective concentration (EC50) on hα7-wt nAChR is 126 nM.

On to `Cc1cc(-c2nc(Nc3ccc4c(c3)OC(F)(F)O4)nn2CC(C)O)ccn1` (centres unmarked) [Compound 198], for which the concentration for a half-maximal effect (EC50) on hα7-wt nAChR was more than 10000 nM.

For `CN(C)C(=O)CCn1nc(N2CCc3ccc(C(F)(F)F)cc32)nc1-c1ccc2c(c1)OCCO2` [Compound 211], the half-maximal effective concentration (EC50) at hα7-wt nAChR was 1000 nM.

These data come from US8143419B2, “Trisubstituted 1,2,4-triazoles” (Janssen Pharmaceutica N. V., priority 2006, dated 2012).
